Experimental data: patent publication US20220031607A1, “INJECTION COMPOSITION CONTAINING FAB I INHIBITOR, AND PREPARATION METHOD THEREFOR” (CRYSTALGENOMICS, INC., priority 2019, published 2022)

Assays:
[1] = Evaluation of water solubility according to pH; format: physicochemical; details: thermodynamic from solid
Procedure: Experimental Example 1-1: […] After completion of the stirring, insoluble substances that may remain were removed by first centrifugation and second filtration with 0.22 μm filter. The substances were diluted with organic solvent methanol and analyzed by HPLC for […] of the solubility. […] As the pH increases, the solubility tends to decrease rapidly.

[2] = system: Staphylococcus aureus ATCC 29213 (MSSA, standard strain); experiment: Susceptibility test (MIC), standard strain; format: cell-based; details: Staphylococcus aureus ATCC 29213; read-out: MIC
Procedure: (§1) For the compound of formula 1, pharmacokinetic/pharmacodynamic experiments were conducted using a mouse infection model. To this end, experiments were conducted with Staphylococcus aureus ATCC 29213 (MSSA, standard strain) and 13B-382 (MRSA, clinical strain). As a medium, Mueller-Hinton broth or Cation-adjusted Mueller-Hinton broth was used. For the susceptibility test (minimum inhibitory concentration (MIC)), the compound of formula 1 was used.

[3] = system: Methicillin-susceptible Staphylococcus aureus strains; experiment: Drug susceptibility (MIC) of methicillin-susceptible clinical isolates; format: cell-based; details: Methicillin-susceptible, n = 103
Procedure: (§2) In order to verify the inhibitory effect of the compound of formula 1 on antibiotic-resistant strains, drug susceptibility was evaluated by treating the compound of formula 1 with Staphylococcus aureus phenotype isolated from each patient. In an in vitro test for antibiotic development, the most important result can be MIC90 (minimum inhibitory concentration required to inhibit the growth of 90% of the total bacterial population). […] Appelbaum at Hershey Hospital who is recognized for its authority in the field of anti-infection worldwide.

[4] = system: Staphylococcus aureus ATCC 29213 (MSSA) and 13B-382 (MRSA); experiment: Pharmacokinetic/pharmacodynamic analysis in neutropenic mouse thigh infection model; format: in vivo, ICR mouse; details: oral administration
Procedure: as §1
An aseptic (Specific pathogen free, SPF) female, 6 weeks old (23˜27 g) ICR mouse (Orient Bio Inc, Gapyeong, Korea) was used, and the experiment was carried out in compliance with the regulations and procedures with the permission of the Ethics committees for animal experiments in accordance with the Animal Protection Act and the Laboratory Animal Act. […]
After 24 hours of drug administration, the mouse was euthanized with carbon dioxide gas and its thigh was separated, put in physiological saline, and cut finely with a homogenizer (Kinematica AG/Polytron®). […] The number of viable cells was counted and recorded. The results were expressed as log10 CFU/thigh, and the measurement limit of the number of viable cells in the laboratory was 1×10^2 CFU/thigh.
T/MIC was evaluated as an index to determine the effect of antibiotics in combination with the antimicrobial action and pharmacokinetic results according to the antimicrobial dosage and administration. […]

[5] = system: Methicillin-resistant Staphylococcus aureus (MRSA) strains; experiment: Drug susceptibility (MIC) of MRSA clinical isolates; format: cell-based; details: Methicillin-resistant, n = 100
Procedure: as §2

[6] = Evaluation of excipient suitability (related substances on storage at 60° C.); format: physicochemical; set-up: Total related substances, Initial value: unit not given here; details: for Total related substances, Severe (1 week): 60° C.
Procedure: The resulting product was stored at 60° C. and the stability of the compound of formula 1 was measured. The measurement of related substances was evaluated according to the guidelines for the evaluation of related substances of the Ministry of Food and Drug Safety, and the results are shown in Table 2.

[7] = Solubility in excipients and solvents by HPLC analysis; format: physicochemical; details: for solubility at 1 h: thermodynamic from solid
Procedure: The excipients approved as pharmaceutical additives and solvents that can be used for future process studies were selected as shown in Table 1. A small amount of the compound of formula 1 was added and dissolved. The addition operation was repeated until completely dissolved. Finally, it was stirred at room temperature for one hour and then filtered to determine the concentration of the compound of formula 1 dissolved in the filtrate through HPLC analysis.
20 μL of each the test solution and the standard solution were tested according to a liquid chromatography method (HPLC) of general test methods of the Korean Pharmacopoeia under the following conditions, and the peak area of the main component of each solution was measured.
Operating Condition and Calculation
Detector: UV spectrophotometer (measurement wavelength 286 nm)
Column: Aegispak C18-L (4.6 mm×250 mm, 5 μm) column
Column temperature: 25° C.
Mobile phase: Acetonitrile:water=3:2

[8] = mixed with Beta-Hydroxypropyl cyclodextrin

Cc1c(N)cccc1Cn1ccc(OCCc2cccs2)cc1=O [Compound of formula 1, 1-(3-amino-2-methylbenzyl)-4-(2-thiophen-2-yl-ethoxy)-1H-pyridin-2-one]
solubility at 2 h ([1]; aqueous buffer, aqueous solution pH 3, room temperature): 6 µg/mL
solubility at 2 h ([1]; aqueous buffer, aqueous solution pH 7, room temperature): 2.5 µg/mL
solubility at 2 h ([1]; aqueous solutions, aqueous buffer, pH 4 to 8): 2 to 5 µg/mL
solubility at 2 h ([1]; simulated gastric fluid, aqueous solution pH 1.2, room temperature): ~1000 µg/mL
MIC [2]: 0.25 µg/mL
MIC Range [3]: 0.06 to 1.0 µg/mL
MIC50 ([3]; Staphylococcus aureus, read-out: MIC50): 0.25 µg/mL
MIC90 ([3]; Staphylococcus aureus, read-out: MIC90): 0.25 µg/mL
bacteria eradicated ([4]; T/MIC value approximately 20% or higher): more than 99.9%
T/MIC value at which more than 99.9% of bacteria were eradicated ([4]; 24 hours): ≥ 20%
MIC Range [5]: 0.06 to 1.0 µg/mL
MIC50 ([5]; Staphylococcus aureus, MRSA, read-out: MIC50): 0.25 µg/mL
MIC90 ([5]; Staphylococcus aureus, MRSA, read-out: MIC90): 0.25 µg/mL
Total related substances, Initial value ([6]; Compound of formula 1 alone): 0.5
Total related substances, Severe (1 week) ([6]; Compound of formula 1 alone): 0.5
Total related substances, Initial value [6, 8]: 0.5
Total related substances, Severe (1 week) [6, 8]: 0.6
Total related substances, Initial value ([6]; mixed with Cremophor 40): 1.6
Total related substances, Severe (1 week) ([6]; mixed with Cremophor 40): 3.4
Total related substances, Initial value ([6]; mixed with Glycerin): 1.4
Total related substances, Severe (1 week) ([6]; mixed with Glycerin): 1.1
Total related substances, Initial value ([6]; mixed with Labrasol): 6.2
Total related substances, Initial value ([6]; mixed with Oleic acid): 6.2
Total related substances, Initial value ([6]; mixed with Olive oil): 1.1
Total related substances, Severe (1 week) ([6]; mixed with Olive oil): 0.7
Total related substances, Initial value ([6]; mixed with PEG): 1.1
Total related substances, Initial value ([6]; mixed with PEG 400): 6.4
Total related substances, Severe (1 week) ([6]; mixed with PEG 400): 9.8
Total related substances, Initial value ([6]; mixed with PEG 20,000): 4.2
Total related substances, Severe (1 week) ([6]; mixed with PEG 20,000): 1
Total related substances, Severe (1 week) ([6]; mixed with PEG): 7
Total related substances, Initial value ([6]; mixed with PVA): 0.9
Total related substances, Initial value ([6]; mixed with PVA 2,000): 0.9
Total related substances, Severe (1 week) ([6]; mixed with PVA 2,000): 0.6
Total related substances, Severe (1 week) ([6]; mixed with PVA): 0.6
Total related substances, Initial value ([6]; mixed with Poloxamer 407): 0.9
Total related substances, Severe (1 week) ([6]; mixed with Poloxamer 407): 0.5
Total related substances, Initial value ([6]; mixed with Propylene glycol): 1
Total related substances, Severe (1 week) ([6]; mixed with Propylene glycol): 5
Total related substances, Initial value ([6]; mixed with Solutol HS 15): 0.7
Total related substances, Severe (1 week) ([6]; mixed with Solutol HS 15): 3.8
Total related substances, Initial value ([6]; mixed with Soybean Oil): 1.1
Total related substances, Severe (1 week) ([6]; mixed with Soybean Oil): 1.4
Total related substances, Initial value ([6]; mixed with Transcutol HP): 1.9
Total related substances, Severe (1 week) ([6]; mixed with Transcutol HP): 9.1
Total related substances, Initial value ([6]; mixed with Tween 80): 1.2
Total related substances, Severe (1 week) ([6]; mixed with Tween 80): 2.6
Stability with excipients ([6]; with soybean oil, olive oil, Tween 80, PEG 20000, PVA, PVA 2000, poloxamer 407, beta-hydroxypropyl cyclodextrin, glycerin): relatively stable
solubility at 1 h ([7]; Capryol 90, oil or lipid, in Capryol 90): 2900 µg/mL
solubility at 1 h ([7]; DMSO, organic solvent or mixture, in DMSO): 180000 µg/mL
solubility at 1 h ([7]; Labrasol, aqueous with cosolvent or surfactant or cyclodextrin, in Labrasol): > 20000 µg/mL
solubility at 1 h ([7]; PEG 300, organic solvent or mixture, in PEG 300): > 20000 µg/mL
solubility at 1 h ([7]; Peceol, oil or lipid, in Peceol): 4400 µg/mL
solubility at 1 h ([7]; Solutol HS 15, aqueous with cosolvent or surfactant or cyclodextrin, in Solutol HS 15): ≥ 10000 µg/mL
solubility at 1 h ([7]; Tween 20, aqueous with cosolvent or surfactant or cyclodextrin, in Tween 20): > 20000 µg/mL
solubility at 1 h ([7]; Tween 80, aqueous with cosolvent or surfactant or cyclodextrin, in Tween 80): ≥ 10000 µg/mL
solubility at 1 h ([7]; glycerol, organic solvent or mixture, in Glycerol): 260 µg/mL
Solubility ([7]; in Ethanol): 3650 µg/mL
Solubility ([7]; in Methanol): 6140 µg/mL
Solubility ([7]; in Propylene glycol): 3800 µg/mL
solubility at 1 h ([7]; methyl chloride, organic solvent or mixture, in Methyl chloride): ~60000 µg/mL
solubility at 1 h ([7]; oleic acid, oil or lipid, in Oleic acid): 2000 µg/mL
solubility at 1 h ([7]; pH 2.0 solution, pH 2, simulated gastric fluid, in pH 2.0): 440 µg/mL
solubility at 1 h ([7]; soybean oil, oil or lipid, in Soybean Oil): ~8500 µg/mL
